According to ChEMBL document CHEMBL6127062, “Targeted degradation of METTL3 against acute myeloid leukemia and gastric cancer” (Eur J Med Chem, 2024):
Blank lines part the entries; values can stand above or below the compound they belong to. The source made the active and inactive calls. The calls are words filed in the database; no cut-off is given here.

How the values were obtained:
[1] = target: N6-adenosine-methyltransferase catalytic subunit (Homo sapiens) (UniProt Q86U44); experiment: Induction of thermal stabilization of METTL3 in human MOLM-13 cells at 52.4 to 54.8 degreeC incubated for 1 hrs by cellular thermal shift assay; assay type: cell-based
N6-adenosine-methyltransferase catalytic subunit (Homo sapiens), sequence (Q86U44 whole entry): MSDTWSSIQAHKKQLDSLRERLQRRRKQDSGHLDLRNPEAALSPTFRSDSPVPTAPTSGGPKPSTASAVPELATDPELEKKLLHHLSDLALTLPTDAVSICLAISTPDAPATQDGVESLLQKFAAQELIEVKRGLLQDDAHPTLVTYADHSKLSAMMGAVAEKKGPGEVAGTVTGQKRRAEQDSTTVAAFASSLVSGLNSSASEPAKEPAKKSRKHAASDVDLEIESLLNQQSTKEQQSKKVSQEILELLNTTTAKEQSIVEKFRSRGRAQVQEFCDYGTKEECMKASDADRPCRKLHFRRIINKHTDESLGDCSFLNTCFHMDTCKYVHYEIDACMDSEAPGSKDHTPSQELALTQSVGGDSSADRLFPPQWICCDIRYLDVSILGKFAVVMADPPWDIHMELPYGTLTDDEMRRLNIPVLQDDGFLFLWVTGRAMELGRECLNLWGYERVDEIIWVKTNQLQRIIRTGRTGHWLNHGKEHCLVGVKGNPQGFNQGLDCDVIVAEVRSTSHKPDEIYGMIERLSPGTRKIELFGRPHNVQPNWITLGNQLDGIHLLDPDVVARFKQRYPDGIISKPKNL

[2] = target: T1, von Hippel-Lindau disease tumor suppressor/N(6)-adenosine-methyltransferase catalytic subunit METTL3 (Homo sapiens, UniProt P40337+Q86U44); experiment: PROTAC activity at VHL/METTL3 in human MOLM-13 cells assessed as reduction in METTL3 level at 1 uM incubated for 24 hrs by Western blot analysis; assay type: cell-based
T1 sequence (Q86U44 2-580 partner limits assumed): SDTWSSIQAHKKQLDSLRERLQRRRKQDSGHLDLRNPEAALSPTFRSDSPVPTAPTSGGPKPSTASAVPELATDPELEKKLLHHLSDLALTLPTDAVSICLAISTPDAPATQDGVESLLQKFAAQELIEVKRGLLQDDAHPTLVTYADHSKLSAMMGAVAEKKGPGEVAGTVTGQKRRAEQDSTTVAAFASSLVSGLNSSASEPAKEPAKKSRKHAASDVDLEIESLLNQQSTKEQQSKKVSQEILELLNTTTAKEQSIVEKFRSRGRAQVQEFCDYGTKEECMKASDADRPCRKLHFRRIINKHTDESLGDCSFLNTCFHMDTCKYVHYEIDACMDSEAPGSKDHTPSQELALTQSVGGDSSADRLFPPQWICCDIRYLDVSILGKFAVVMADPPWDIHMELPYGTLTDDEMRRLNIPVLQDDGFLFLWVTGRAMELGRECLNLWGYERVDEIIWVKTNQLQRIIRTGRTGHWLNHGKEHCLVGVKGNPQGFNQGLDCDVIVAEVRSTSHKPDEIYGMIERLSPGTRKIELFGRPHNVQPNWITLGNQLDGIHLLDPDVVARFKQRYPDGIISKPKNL
T1 sequence (P40337 whole entry): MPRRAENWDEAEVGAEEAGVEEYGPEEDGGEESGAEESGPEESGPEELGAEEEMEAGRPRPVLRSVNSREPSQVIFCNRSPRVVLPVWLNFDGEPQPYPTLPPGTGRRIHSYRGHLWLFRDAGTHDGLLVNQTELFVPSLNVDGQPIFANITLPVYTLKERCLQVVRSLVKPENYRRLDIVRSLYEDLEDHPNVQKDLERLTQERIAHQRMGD

[3] = target: T1, von Hippel-Lindau disease tumor suppressor/N(6)-adenosine-methyltransferase catalytic subunit METTL3; experiment: PROTAC activity at VHL/METTL3 (unknown origin) expressed in HeLa cells assessed as reduction in BRD4-eGFP_mCherry level incubated for 4 hrs in presence of MZ1 by flow cytometry analysis; assay type: cell-based
[4] = tested on: HeLa; experiment: Binding affinity to METTL3/GFP-fused BRD4 (unknown origin) expressed in HeLa cells presence of MZ1 by Western blot analysis; assay type: cell-based; details: Homo sapiens
[5] = target: T2, Protein cereblon/N(6)-adenosine-methyltransferase catalytic subunit METTL3 (Homo sapiens) (UniProt Q96SW2+Q86U44); experiment: PROTAC activity at CRBN/METTL3 in human MOLM-13 cells assessed as induction of METTL3 degradation at 10 uM by Western blot analysis relative to control; assay type: cell-based
T2 sequence (Q86U44 whole entry, looked up): as the sequence (Q86U44 whole entry) above
T2 sequence (Q96SW2 whole entry, looked up): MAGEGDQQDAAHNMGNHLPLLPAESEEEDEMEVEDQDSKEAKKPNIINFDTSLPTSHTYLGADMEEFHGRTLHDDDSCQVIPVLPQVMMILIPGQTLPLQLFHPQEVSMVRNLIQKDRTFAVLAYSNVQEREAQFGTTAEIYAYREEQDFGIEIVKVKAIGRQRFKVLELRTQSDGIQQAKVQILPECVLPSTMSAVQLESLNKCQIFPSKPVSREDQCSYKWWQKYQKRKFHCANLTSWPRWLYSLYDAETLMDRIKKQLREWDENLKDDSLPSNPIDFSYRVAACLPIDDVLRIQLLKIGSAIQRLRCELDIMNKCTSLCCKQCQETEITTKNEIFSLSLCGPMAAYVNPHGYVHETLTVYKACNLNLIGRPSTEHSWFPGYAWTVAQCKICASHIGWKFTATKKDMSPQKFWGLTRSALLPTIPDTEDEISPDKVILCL

[6] = target: T2, Protein cereblon/N(6)-adenosine-methyltransferase catalytic subunit METTL3 (Homo sapiens); experiment: PROTAC activity at CRBN/METTL3 in human MOLM-13 cells assessed as induction of METTL3 degradation at 1 uM by Western blot analysis relative to control; assay type: cell-based
[7] = tested on: MOLM-13; experiment: Antiproliferative activity against human MOLM-13 cells assessed as inhibition of cell proliferation measured after 72 hrs by Celltiter Glo luminescent cell viability assay; assay type: functional, cell-based; details: MOLM-13, 72 h
[8] = tested on: GES1; experiment: Anticancer activity against human GES1 cells assessed as inhibition of cell growth incubated for 72 hrs by cell viability assay; assay type: functional, cell-based
[9] = tested on: AGS; experiment: Anticancer activity against human AGS cells assessed as inhibition of cell growth incubated for 72 hrs by cell viability assay; assay type: functional, cell-based
[10] = tested on: SNU-484; experiment: Anticancer activity against human SNU484 cells assessed as inhibition of cell growth incubated for 72 hrs by cell viability assay; assay type: functional, cell-based
[11] = target: T1, von Hippel-Lindau disease tumor suppressor/N(6)-adenosine-methyltransferase catalytic subunit METTL3; experiment: PROTAC activity at VHL/METTL3 in human MOLM-13 cells assessed as induction of METTL3 degradation at 1 uM by Western blot analysis relative to control; assay type: cell-based
[12] = target: T1, von Hippel-Lindau disease tumor suppressor/N(6)-adenosine-methyltransferase catalytic subunit METTL3; experiment: PROTAC activity at VHL/METTL3 in human MOLM-13 cells assessed as induction of METTL3 degradation at 10 uM by Western blot analysis relative to control; assay type: cell-based

Activity [1]: Active
Activity [2]: inactive
Activity [3]: Active
Structure (SMILES): Cc1ncsc1-c1ccc(CNC(=O)[C@@H]2C[C@H](O)CN2C(=O)[C@@H](NC(=O)CCCCCCCNc2cc(N3CCC4(CC3)CN(c3cc(F)c(CN5CCC(C)(C)CC5)cc3F)CC(=O)N4)ncn2)C(C)(C)C)cc1
Activity [4]: Active

Activity [5]: 35%
Activity [6]: 32%
Structure (SMILES): CC1(C)CCN(Cc2cc(F)c(N3CC(=O)NC4(CCN(c5cc(NCCCCCC(=O)N6CCN(c7ccc8c(c7)C(=O)N(C7CCC(=O)NC7=O)C8=O)CC6)ncn5)CC4)C3)cc2F)CC1 (configuration not stated)

IC50 [7]: 6.17 µM
Structure (SMILES): CNc1cc(N2CCC3(CC2)CN(c2cc(F)c(CN4CCC(C)(C)CC4)cc2F)CC(=O)N3)ncn1
Activity [8]: inactive
Activity [9]: inactive
Activity [10]: inactive

Activity [11]: 34%
Activity [12]: 55%
Structure (SMILES): Cc1ncsc1-c1ccc(CNC(=O)[C@@H]2C[C@@H](O)CN2C(=O)[C@@H](NC(=O)CCCCCCCCCCNc2cc(N3CCC4(CC3)CN(c3cc(F)c(CN5CCC(C)(C)CC5)cc3F)CC(=O)N4)ncn2)C(C)(C)C)cc1
